From paper PMC11061149, “Protein mimetic 2D FAST rescues alpha synuclein aggregation mediated early and post disease Parkinson’s phenotypes” (Nature Communications, 2024)
Where “and” joins values, the source holds several entries; their conditions need not be identical. Identical values can stand only once.

Test system: UA196 worms (human αS and GFP in DA neurons)
Test: Confocal counting of healthy DA neurons in UA196 worms, early treatment (day two and four)
Format: in vivo, C. elegans
Parameters: key to Total neurons, Average: healthy DA neurons per replicate of 10 worms, max 60
From the text: The aggregation of αS is associated with the neurodegeneration of DA neurons, which is a pathological hallmark of PD. Next, we investigated the neuroprotective effect of NS163 on the intraneuronal αS aggregation-mediated degeneration of DA neurons in a well-established C. elegans PD model (UA196)[20],[72]–[75]. The UA196 worms express both human αS and GFP in DA neurons under the control of the dopamine promoter genotype (Pdat-1::GFP; Pdat-1::α-SYN). The expression and aggregation of αS in six DA neurons that are located within the anterior region of worms lead to progressive neurodegeneration characteristics during the aging of UA196 worms. This strain has been used to gain insights into the PD-associated mechanisms and to assess the neuroprotective effect of ligands against the intraneuronal αS aggregation[20],[72]–[75]. During the aging of worms, αS protein aggregates and degenerates the DA neurons as represented by the gradual loss of cell bodies as observed from day 3 (Fig. 7b, c, filled red arrow) to day 5 (Fig. 7d, e, empty red arrow), to day 15 (Fig. 7f, g, empty red arrow). Additionally, there was fragmentation and blebbing of neurites from day 3 (Fig. 7b, c, filled yellow arrow) to day 5 (Fig. 7d, e, empty yellow arrow), which has been observed by others as well[72]–[75]. The maximum number of healthy DA neurons in one UA196 worm is six on day 3 (no degeneration) and we used 10 worms/biological replicate, which makes a total of 60 healthy DA neurons/biological replicate. Therefore, for each study, the maximum number of healthy DA neurons in UA196 worms is 60 as an average for each biological replicate. […] None of the UA196 worms had all six healthy DA neurons on day 5 (Fig. 7k, -NS163) and there was a gradual decline in the total number of healthy DA neurons in UA196 worms (Supplementary Fig. 26a). […] The average number of intact DA neurons in UA196 worms treated with NS163 was 59.5, 58.7, and 57.3 on day five, 10, and 15, respectively (Fig. 7j, red line). Additionally, the total number of treated worms with all six intact DA neurons were 57, 52, and 47 on day 5, 10, and 15, respectively (Fig. 7k, Supplementary Fig. 26b).
In UA196 strain, human αS and GFP are expressed in DA neurons under control of a dopamine transporter-specific promoter [Pdat-1::α-syn+Pdat-1::GFP], which results in age-dependent neurodegeneration of six DA neurons.
This experiment was performed based on previously described protocols with slight modifications[24],[65],[88]. Briefly, the worm strains (NL5901 or UA196) were bleached at the same time and the eggs were incubated on PLATE 1. On day two, the worms were divided into two batches. One half of the worms were transferred (using M9 buffer) on PLATE 2 (without ligand) and the second half of the worms were transferred to PLATE 3 (with ligand). The concentration of the ligands varied from 10–50 µM as described in the main manuscript. The worms were incubated on PLATE 2 or PLATE 3 up to day 3 at 20 °C in an incubator with constant humidity. On day four, the ligand (10–50 µM, stock conc. = 10 mM in DMSO, DMSO from 0.1–0.5%, v/v) was added again to PLATE 3. For confocal imaging, at least 10 worms per condition (from PLATE 2 or PLATE 3) were transferred to a cover slide containing an anesthetic (40 mM sodium azide), and mounted on glass microscope slide containing 2% agarose pads using a reported protocol. The images of the worms were collected using an Olympus Fluoview FV3000 confocal/2-photon microscope (40 x Plan-Apo/1.3 NA objective with DIC capability) and processed using the OlympusViewer in ImageJ software. For NL5901 worms, the inclusions of the aggregated αS (GFP puncta in the muscle cells) were manually counted (10 worms per condition) for the five-day imaging period (day 5 to day 9) for PLATE 2 or PLATE 3. […]

[1] = UA196+NS132, Day 3, 10 per trial
[2] = UA196+NS132, Day 5, 10 per trial
[3] = UA196+NS132, Day 10, 10 per trial
[4] = UA196+NS132, Day 15, 10 per trial

Compound: Cc1ccc(NC(=O)c2ccc(NC(=O)c3ccc([N+](=O)[O-])c(NCCc4c[nH]c5ccccc45)n3)c(NCC3CCCCC3)n2)c(OCC(=O)O)n1 [NS132]
- number of intact DA neurons in UA196 worms (max. 60) (50 µM ligand on day two and four, day 15 (untreated 13.5)): 51
- Total neurons, Average (UA196+NS132, Day 3): 59.5
- Number of worms with 1 neurons [1]: 0
- Number of worms with 2 neurons [1]: 0
- Number of worms with 6 neurons [1]: 9 and 10
- number of worms with 3 neurons [1]: 0
- number of worms with 4 neurons [1]: 0
- Total neurons, Average (UA196+NS132, Day 5): 55.8333
- Number of worms with 1 neurons [2]: 0
- Number of worms with 2 neurons [2]: 0
- Number of worms with 5 neurons [2]: 2 and 3 and 4
- Number of worms with 6 neurons [2]: 7 and 8 and 6 and 5
- number of worms with 3 neurons [2]: 0
- Total neurons, Average (UA196+NS132, Day 10): 53.1667
- Number of worms with 1 neurons [3]: 0
- Number of worms with 2 neurons [3]: 0
- Number of worms with 6 neurons [3]: 6 and 4 and 5
- number of worms with 3 neurons [3]: 0
- Total neurons, Average (UA196+NS132, Day 15): 51
- Number of worms with 1 neurons [4]: 0
- Number of worms with 2 neurons [4]: 0
- Number of worms with 5 neurons [4]: 5 and 4 and 3
- Number of worms with 6 neurons [4]: 3 and 4 and 5
- Total neurons, UA196 worms+Ligands (UA196 worms+Ligands, one value per trial, day not given for ligand (controls: Day 3, Day 15)): 53 and 48 and 50 and 54 and 49 and 52
